{"source": "PubChem BioAssay AID2060602", "about": "(Molecular Pharmacology Branch, DTP, NCI, 2025);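 on viability, T/C: drug exposure lasted seven days before viability readout; 100% = DMSO vehicle control wells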", "test_system": "648629-189-R-J1-PDC complex spheroids viability", "test": "Anticancer human tumor 648629-189-R-J1-PDC patient-derived bladder carcinoma cell line growth inhibition [CLK]", "settings": "for IC50: curve of first compound; for viability, T/C: stronger effect = lower value", "from_the_text": "A high-throughput screen of multi-cell type tumor spheroids was designed to identify active combinations of […] and targeted small molecules. Complex spheroids include a stromal component modeled by human endothelial cells (HUVEC) and fibroblasts modeled by human mesenchymal stem cells (MSCs). The concentration ranges selected for each drug and investigational agent were based upon clinically achievable concentrations if the clinical Cmax of the agent was known.\nCompounds. The drugs and investigational agents: cirtuvivint (SM08502; NSC835563), CC-671 (NSC850746), vemurafenib (NSC761431), tapotoclax (NSC804041), sotorasib (NSC818433), adagrasib (NSC831453), MRTX-1133 (NSC836407), BAY2416964 (NSC825713), copanlisib (NSC816437), inavolisib (NSC800729), abemaciclib (NSC768073), osimertinib (NSC779217), entinostat (NSC756642), eltanexor (KPT-8602, NSC794443), venetoclax (NSC766270), ceralasertib (NSC777638), bortezomib (NSC756655), olaparib (NSC753686), talazoparib (NSC767125), alisertib (NSC759677), peposertib (NSC802822), gemcitabine (NSC613327), 5-fluorouracil (NSC19893), SN-38 (NSC673596), oxaliplatin (NSC266046), paclitaxel (NSC125973), and doxorubicin (NSC123127), were obtained from the National Cancer Institute (NCI) Developmental Therapeutics Program Chemical Repository. The FDA-approved anticancer drug set is available from the Developmental Therapeutics Program at https://dtp.cancer.gov/organization/dscb/obtaining/available plates.htm. […] The stock solutions were prepared in dimethyl sulfoxide (DMSO, Sigma-Aldrich, St. Louis, MO, cat. D2650), except for the platinum complexes which were prepared in saline (Quality Biological, Gaithersburg, MD, cat. 114-055-101), at 800-fold the tested concentration and stored at -70 degrees C prior to their use. All drugs and investigational agents were tested over a range starting from a high concentration at or near the clinical Cmax and decreasing in half-log increments. If the clinical Cmax for an agent had not been determined, the highest concentration tested was 10 microM.\nCell Culture. All cells were maintained in an incubator at 37 degrees C and 5% CO2 with 95% humidity. The PDC lines were cultured according to standard operating procedures established by the NCI PDMR. Briefly, all PDCs were thawed and cultured in Matrigel-coated flasks prepared with a working solution of 1X Ham's F-12 nutrient mix, without supplementation (Invitrogen, Waltham, MA, cat. 11765054), 100 U/mL penicillin-streptomycin (Invitrogen, cat. 15140122), and 2.5% Matrigel (Corning Inc., Corning, NY, cat. 354248) for the first three passages. The 947758-054-R-J2-PDC line was cultured in 6B/Colon 1A media, which includes advanced DMEM/F-12 (Thermo Fisher Scientific, cat. 12634028), 10 mM HEPES (Thermo Fisher Scientific, cat. 15630080), 1X GlutaMAX supplement (Thermo Fisher Scientific, cat. 35050061), 0.1 mg/mL primocin (InvivoGen, cat. ant-pm-2), 10% defined fetal bovine serum, heat inactivated (HyClone Laboratories Inc., cat. SH30070.03HI), 1.25 mM N-Acetyl-L-cysteine (Sigma-Aldrich, cat. A9165), 10 mM nicotinamide (Sigma-Aldrich, cat. N0636), 1X B-27 supplement (Thermo Fisher Scientific, cat. 17504044), 1X N-2 supplement (Thermo Fisher Scientific, cat. 17502048), and 10 microM Y-27632 dihydrochloride (Tocris Bioscience, cat. 1254). The 876862-298-R-J1-PDC was cultured in 6E media, which includes all 6B/Colon 1A media components plus 50% L-WRN conditioned media (ATCC, cat. CRL-3276), 50 ng/mL recombinant human EGF recombinant protein (hEGF; Thermo Fisher Scientific, cat. PHG0311), 10 ng/mL recombinant human fibroblast growth factor 10 (hGFG-10; PeproTech, cat. 100-26), 1 ng/mL recombinant human fibroblast growth factor 2 (hFGF-2; PeproTech, cat. 100-18B), and 1 µM prostaglandin E2 (PGE2; Tocris, cat. 2296). The 227483-062-R1-J1-PDC line was cultured in Panc media, containing all 6E components except hFGF-2, with the addition of 500 nM SB-431542 (Selleckchem, cat. S1067) and 10 nM gastrin (Tocris, cat. 3006). […]", "data": [{"smiles": "C#Cc1c(F)ccc2cc(O)cc(-c3ncc4c(N5CC6CCC(C5)N6)nc(OCC56CCCN5CC(F)C6)nc4c3F)c12", "note": "(configuration not stated) + CN1CCN(c2cc(C(=O)Nc3cc4cc(-c5cnn(C)c5)ccc4cn3)ccn2)CC1", "values": [{"measurement": "IC50", "setting": "second compound 0.0316 µM", "result": "> 10", "unit": "µM"}, {"measurement": "IC50", "setting": "second compound 0.1 µM", "result": "> 10", "unit": "µM"}, {"measurement": "IC50", "setting": "second compound 0.316 µM", "result": 3.62, "unit": "µM"}, {"measurement": "IC50", "setting": "second compound 1 µM", "result": "< 0.0316", "unit": "µM"}, {"measurement": "IC50", "setting": "second compound 3.16 µM", "result": "< 0.0316", "unit": "µM"}, {"measurement": "IC50", "setting": "second compound 10 µM", "result": "< 0.0316", "unit": "µM"}, {"measurement": "viability, T/C", "setting": "second compound 0.0316 µM, first compound 0.0316 µM", "result": 122, "unit": "%"}, {"measurement": "viability, T/C", "setting": "second compound 0.0316 µM, first compound 0.1 µM", "result": 113, "unit": "%"}, {"measurement": "viability, T/C", "setting": "second compound 0.0316 µM, first compound 0.316 µM", "result": 103, "unit": "%"}, {"measurement": "viability, T/C", "setting": "second compound 0.0316 µM, first compound 1 µM", "result": 122, "unit": "%"}, {"measurement": "viability, T/C", "setting": "second compound 0.0316 µM, first compound 3.16 µM", "result": 118, "unit": "%"}, {"measurement": "viability, T/C", "setting": "second compound 0.0316 µM, first compound 10 µM", "result": 105, "unit": "%"}, {"measurement": "viability, T/C", "setting": "second compound 0.1 µM, first compound 0.0316 µM", "result": 102, "unit": "%"}, {"measurement": "viability, T/C", "setting": "second compound 0.1 µM, first compound 0.1 µM", "result": 104, "unit": "%"}, {"measurement": "viability, T/C", "setting": "second compound 0.1 µM, first compound 0.316 µM", "result": 99.1, "unit": "%"}, {"measurement": "viability, T/C", "setting": "second compound 0.1 µM, first compound 1 µM", "result": 117, "unit": "%"}, {"measurement": "viability, T/C", "setting": "second compound 0.1 µM, first compound 3.16 µM", "result": 99.5, "unit": "%"}, {"measurement": "viability, T/C", "setting": "second compound 0.1 µM, first compound 10 µM", "result": 98, "unit": "%"}, {"measurement": "viability, T/C", "setting": "second compound 0.316 µM, first compound 0.0316 µM", "result": 50.1, "unit": "%"}, {"measurement": "viability, T/C", "setting": "second compound 0.316 µM, first compound 0.1 µM", "result": 49.4, "unit": "%"}, {"measurement": "viability, T/C", "setting": "second compound 0.316 µM, first compound 0.316 µM", "result": 50.3, "unit": "%"}, {"measurement": "viability, T/C", "setting": "second compound 0.316 µM, first compound 1 µM", "result": 54.3, "unit": "%"}, {"measurement": "viability, T/C", "setting": "second compound 0.316 µM, first compound 3.16 µM", "result": 53, "unit": "%"}, {"measurement": "viability, T/C", "setting": "second compound 0.316 µM, first compound 10 µM", "result": 39.9, "unit": "%"}, {"measurement": "viability, T/C", "setting": "second compound 1 µM, first compound 0.0316 µM", "result": 0.6, "unit": "%"}, {"measurement": "viability, T/C", "setting": "second compound 1 µM, first compound 0.1 µM", "result": 0.88, "unit": "%"}, {"measurement": "viability, T/C", "setting": "second compound 1 µM, first compound 0.316 µM", "result": 0.41, "unit": "%"}, {"measurement": "viability, T/C", "setting": "second compound 1 µM, first compound 1 µM", "result": 0.41, "unit": "%"}, {"measurement": "viability, T/C", "setting": "second compound 1 µM, first compound 3.16 µM", "result": 0.51, "unit": "%"}, {"measurement": "viability, T/C", "setting": "second compound 1 µM, first compound 10 µM", "result": 0.64, "unit": "%"}, {"measurement": "viability, T/C", "setting": "second compound 3.16 µM, first compound 0.0316 µM", "result": 0.13, "unit": "%"}, {"measurement": "viability, T/C", "setting": "second compound 3.16 µM, first compound 0.1 µM", "result": 0.2, "unit": "%"}, {"measurement": "viability, T/C", "setting": "second compound 3.16 µM, first compound 0.316 µM", "result": 0.15, "unit": "%"}, {"measurement": "viability, T/C", "setting": "second compound 3.16 µM, first compound 1 µM", "result": 0.14, "unit": "%"}, {"measurement": "viability, T/C", "setting": "second compound 3.16 µM, first compound 3.16 µM", "result": 0.15, "unit": "%"}, {"measurement": "viability, T/C", "setting": "second compound 3.16 µM, first compound 10 µM", "result": 0.15, "unit": "%"}, {"measurement": "viability, T/C", "setting": "second compound 10 µM, first compound 0.0316 µM", "result": 0.36, "unit": "%"}, {"measurement": "viability, T/C", "setting": "second compound 10 µM, first compound 0.1 µM", "result": 0.22, "unit": "%"}, {"measurement": "viability, T/C", "setting": "second compound 10 µM, first compound 0.316 µM", "result": 0.15, "unit": "%"}, {"measurement": "viability, T/C", "setting": "second compound 10 µM, first compound 1 µM", "result": 0.19, "unit": "%"}, {"measurement": "viability, T/C", "setting": "second compound 10 µM, first compound 3.16 µM", "result": 0.2, "unit": "%"}, {"measurement": "viability, T/C", "setting": "second compound 10 µM, first compound 10 µM", "result": 0.16, "unit": "%"}]}]}
